The subject of one data set is CYP3A4. How it is done: FIG. 14A, cells were grown in a collagen-Matrigel™ sandwich with serum supplemented medium. FIG. 14B, cells were grown under routine culture conditions, but with serum-free medium. Data are the mean of replicate assays (n=2). Error bars indicate the standard deviation of replicate assays.
We undertook an evaluation of CYP3A4 activity in phHASC strains using a commercially available luciferase-based luminescent assay. The p450-GLO™ CYP3A4 luminescent assay was supplied by Promega Corp. (Madison, Wis.). The assay is based on a caged luciferin substrate that is specifically uncaged by the enzymatic action of CYP3A4. Once uncaged, luciferin is available for luciferase action and light production.
We evaluated the effect of rifampicin under two different conditions with two different concentrations of the solvent carrier DMSO, 0.03% and 5%. Parental phHASCs were evaluated after growth in a collagen-Matrigel™ sandwich, as recommended by the supplier of the p450-GLO™ CYP3A4 luminescent assay (FIG. 14A) or under standard culture conditions with serum-free medium (FIG. 14B).

The subject of the next data set is somatic liver stem cells. Put plainly: Derivation of phHASC strains from liver cells by the modified SACK method. It is filed as cell-based, human. How it is done:
Cells: Human liver cells are tested for blood borne agents, the non-parenchymal (NPC) fraction is place on ice for up to 24 hours and then centrifuged at 800×g for 5 minutes at 4° C. The resulting cell pellet is re-suspended in 50 ml-100 ml cold Dulbecco's Modified Eagle medium (DMEM-high glucose) supplemented with 1% dialyzed fetal bovine serum (DFBS). Based on the count of trypan blue-excluding viable cells, 5×10^6 viable cells are plated in 10-cm diameter cell culture dishes. Initiation Culture Medium: […] Maintenance Culture Medium: DMEM-high glucose supplemented with 10% DFBS, 20 ng/ml recombinant human epidermal growth factor, 0.5 ng/ml transforming growth factor β1, and the respective purine compound at the concentration used in the Initiation Culture Medium. Although initial efforts to derive cell strains by limiting dilution cloning were unsuccessful, we modified the approach by initially culturing primary liver cell preparations at confluent cell densities under conditions of reduced serum and supplementation with SACK agents, TGF-β and EGF (See Table 1). SACK-derived rat adult stem cell strains resist hepatocytic differentiation by TGF-β and EGF. Whereas their non-stem cell progeny undergo cell cycle withdrawal and hepatic differentiation in response to serum reduction and exposure to TGF-β and EGF, in the presence of Xs, the stem cells continue to cycle actively. The first four livers were invested in establishing a modified SACK procedure. Unlike the original procedure developed for derivation of rat hepatic adult stem cells (Lee et al., 2003), the new method is not based on limiting dilution cloning. Instead, the liver cells are initially cultured at confluent cell densities in low serum medium (1% dialyzed fetal bovine serum [dFBS]) supplemented with the growth factors TGFβ and EGF. In addition, higher concentrations of SACK agents are used, e.g. 1.5 mM Xs. These conditions suppress the growth of differentiating liver cells (including troublesome fibroblasts and stellate cells), while promoting the expansion of […]. After initial outgrowth of […] strains, serum supplementation is increased to 10% dFBS for routine maintenance. Table 1 summarizes results obtained when the newly adapted SACK procedure was applied to cell specimens from two livers from […] donors. All strains were cryo-preserved at early passages using a freezing procedure that minimizes the time that cells spend super-cooled before ice formation (Karlsson et al., 1996). This precaution provides a high level of viability (70%-80%) upon thawing the cells.

A further data set has as its system phHASC subclone C2. The data set is described as follows: Colcemid arrest assay (CAA) of non-cycling cell fraction. Conditions: subclone C2, +Xs compared to -Xs. It counts as cell-based, human. How it is done: FIGS. 12A and 12B show CAA analyses of a Xs-derived sub-clone (Parental strain see FIG. 10). […] The new assay is called the colcemid arrest assay (CAA). We used our engineered cell lines with experimentally controlled asymmetric self-renewal to develop it (Rambhatla et al., 2001; FIG. 9). Cell cultures are treated with the microtubule antagonist colcemid for a complete generation period. Conventional methods for propidium iodine staining and standard flow cytometry are used to quantify the DNA content of cells after colcemid treatment. In the presence of colcemid, cycling cells arrest in mitosis of the cell cycle with 4N DNA content. After one generation period, all previously cycling cells contain this amount of DNA. Therefore, for cell cultures with only symmetrically cycling cells, essentially the entire culture arrests in mitosis with 4N DNA (compare FIGS. 9A and 9C). In contrast, the DNA content of non-cycling cells is unchanged. […] Thus, CAA can identify and quantify the cycling stem cell fraction and the arrested differentiated progeny fraction of an asymmetrically self-renewing adult stem cell population (compare FIGS. 9B and 9D). […] In pilot studies with engineered cell lines, the CAA-determined rates were in good agreement with expectations based on previous lineage-specific cell kinetics assays. […]

`C[S+](C)[O-]` [DMSO, dimethylsulfoxide]: in the data set on CYP3A4, the “effect on basal level of CYP3A4 activity” value was “did not affect”. Also, the “increase in CYP3A4 activity” value in the data set on CYP3A4 (human, 48 h, 5 %) is on record as 6.5 fold.
With `O=c1[nH]cnc2nc[nH]c12` [Hx, hypoxanthine], the “Number of Strains” value in the data set with somatic liver stem cells (liver, 2 trials per SACK agent) was 2; in the data set with somatic liver stem cells (liver, 3 trials per SACK agent) it was 3.
For `O=c1[nH]c(=O)c2[nH]cnc2[nH]1` [Xn, xanthine], in that order: 1 and 3.
For the molecule `O=c1[nH]c(=O)c2ncn([C@@H]3O[C@H](CO)[C@@H](O)[C@H]3O)c2[nH]1` [Xs, xanthosine], the non-cycling fraction entry with phHASC subclone C2 was “reduced”. In addition, the “reliability and effectiveness for developing strains” value in the data set with somatic liver stem cells (compared among Hx, Xn and Xs) was “most reliable and effective”. The molecule further showed a Sub-clones in the data set with somatic liver stem cells (liver) of 9. In addition, the “Number of Strains” value in the data set with somatic liver stem cells (liver, 2 trials per SACK agent) is 2; in the data set on somatic liver stem cells (liver, 3 trials per SACK agent), 1.
